These results are taken from US8399465B2, “Compounds with two fused bicyclic heteroaryl moieties as modulators of leukotriene A4 hydrolase” (Janssen Pharmaceutica NV, priority 2009, dated 2013).

Structures can show the parent of a compound that is named as a salt.

The target in experiment [1] is T1, recombinant human LTA4 hydrolase (rhLTA4H) (Homo sapiens, UniProt P09960).
T1 construct: made in house; host or cells: Spodoptera frugiperda (Sf-9) cells, baculovirus (pFastBac1)
T1 sequence (P09960 1-611): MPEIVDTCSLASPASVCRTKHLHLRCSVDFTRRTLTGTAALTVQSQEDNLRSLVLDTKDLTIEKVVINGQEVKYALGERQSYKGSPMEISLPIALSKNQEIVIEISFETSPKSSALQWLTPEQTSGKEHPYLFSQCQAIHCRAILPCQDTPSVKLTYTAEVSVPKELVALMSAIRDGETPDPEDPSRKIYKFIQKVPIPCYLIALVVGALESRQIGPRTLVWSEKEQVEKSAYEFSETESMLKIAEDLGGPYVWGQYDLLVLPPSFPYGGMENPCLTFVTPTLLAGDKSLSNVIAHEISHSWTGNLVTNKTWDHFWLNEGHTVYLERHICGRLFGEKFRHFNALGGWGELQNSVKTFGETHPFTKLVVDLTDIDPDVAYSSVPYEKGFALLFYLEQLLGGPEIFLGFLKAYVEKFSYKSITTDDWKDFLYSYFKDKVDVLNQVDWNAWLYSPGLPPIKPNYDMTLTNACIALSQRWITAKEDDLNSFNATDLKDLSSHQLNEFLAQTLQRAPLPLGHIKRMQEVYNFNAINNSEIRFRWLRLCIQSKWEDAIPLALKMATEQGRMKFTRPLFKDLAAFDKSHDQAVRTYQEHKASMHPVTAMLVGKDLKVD
Kind of experiment: Recombinant human LTA4 hydrolase assay for LTA4 hydrolase inhibitor activity. Type of experiment: biochemical. To be noted: rhLTA4H, LTB4 by immunoassay; single determination or average of two or more; mark after value = form tested: ′ free base, ″ hydrochloride, ^ formate; read-out: IC50. The method in brief: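 LTB4 formation, measured by enzyme immunoassay, was the read-out. The enzyme, recombinant human LTA4H expressed in Sf-9 insect cells (10 ng per reaction), was exposed to compound for 10 min at room temperature before hydrolysed-ester LTA4 substrate was added for 30 min. Enzyme-free negatives were included.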

Experiment [2] relates to LTB4 production in murine blood (LTA4H). Kind of experiment: LTB4 production by calcium ionophore-stimulated murine blood for LTA4H inhibitor activity. The class given is cell-based, CD-1 mice. To be noted: Mus musculus; murine blood diluted 1 in 15, A23187 stimulated; single determination or average; mark after value = form tested: ′ free base, ″ hydrochloride, ^ formate; read-out: IC50. The method in brief:
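LTB4 was measured by ELISA in supernatants after calcium ionophore A23187 stimulation (final 7 μg/mL, 30 min, 37° C) of CD-1 mouse blood collected on heparin. Compound was preincubated with the blood for 15 min beforehand. Values come from one determination or average several.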

Consider `NC(=O)N1CC2CN(Cc3cc4ccc(Oc5nc6ncccc6s5)cc4o3)CC2C1` (centres unmarked) [Example 194, 5-[6-(Thiazolo[4,5-b]pyridin-2-yloxy)-benzofuran-2-ylmethyl]-hexahydro-pyrrolo[3,4-c]pyrrole-2-carboxylic acid amide], for which the IC50 in experiment [1] is 39 nM; in experiment [2], 260 nM.

In the case of `CCOC(=O)C1CCN(Cc2c[nH]c3cc(Oc4nc5ccccc5s4)ccc23)CC1` [Example 139, 1-[6-(Benzothiazol-2-yloxy)-1H-indol-3-ylmethyl]-piperidine-4-carboxylic acid ethyl ester], the IC50 in experiment [1] amounted to 12 nM; in experiment [2] it was 467 nM.

As for `CN(C)C1CCN(Cc2coc3cc(Oc4nc5ncccc5s4)ccc23)CC1` [Example 282, Dimethyl-{1-[6-(thiazolo[4,5-b]pyridin-2-yloxy)-benzofuran-3-ylmethyl]-piperidin-4-yl}-amine formate], the IC50 in experiment [1] came to 17 nM; in experiment [2] it was 72 nM.

For `CC(=O)N[C@H]1C[C@H]2CC[C@@H](C1)N2Cc1cc2ccc(Oc3nc4ccccc4s3)cc2[nH]1` [Example 70, meso-endo-N-{8-[6-(Benzothiazol-2-yloxy)-1H-indol-2-ylmethyl]-8-aza-bicyclo[3.2.1]oct-3-yl}-acetamide], the figures for the IC50 in experiment [1] and in experiment [2] were 1 nM and 76 nM, respectively.

As for `CC(=O)N1C[C@H]2CC[C@@H](C1)N2Cc1cc2cc(Oc3nc4cnccc4s3)ccc2o1` [Example 206, meso-1-{8-[5-(Thiazolo[4,5-c]pyridin-2-yloxy)-benzofuran-2-ylmethyl]-3,8-diaza-bicyclo[3.2.1]oct-3-yl}-ethanone], the IC50 in experiment [1] was 147 nM; in experiment [2], 340 nM.

Take `CS(=O)(=O)NC1CCN(Cc2coc3cc(Oc4nc5ccccc5s4)ccc23)CC1` [Example 363, N-{1-[6-(Benzothiazol-2-yloxy)-benzofuran-3-ylmethyl]-piperidin-4-yl}-methanesulfonamide]: the IC50 came out at 37 nM in experiment [1] and 400 nM in experiment [2].

As to `c1ccc2sc(Oc3ccc4cc(CN5CCCCC5)[nH]c4c3)nc2c1` [Example 67, 2-(2-Piperidin-1-ylmethyl-1H-indol-6-yloxy)-benzothiazole], the IC50 worked out at 34 nM in experiment [1] and 295 nM in experiment [2].

As for `O=C(O)C1CCN(Cc2coc3cc(Oc4nc5ncccc5s4)ccc23)CC1` [Example 249, 1-[6-(Thiazolo[4,5-b]pyridin-2-yloxy)-benzofuran-3-ylmethyl]-piperidine-4-carboxylic acid], the figures for the IC50 in experiment [1] and in experiment [2] were 12 nM and 54 nM, respectively.

As for `O=C1Cc2ccccc2N1Cc1coc2cc(Oc3nc4ncccc4s3)ccc12` [Example 399, 1-[6-(Thiazolo[4,5-b]pyridin-2-yloxy)-benzofuran-3-ylmethyl]-1,3-dihydro-indol-2-one], the values for the IC50 in experiment [1] and in experiment [2] were 13 nM and 300 nM, respectively.

As for `CC(=O)N1C[C@H]2C[C@@H]1CN2Cc1cc2cc(Oc3nc4ncccc4s3)ccc2o1` [Example 102, (1R,4R)-1-{5-[5-(Thiazolo[4,5-b]pyridin-2-yloxy)-benzofuran-2-ylmethyl]-2,5-diaza-bicyclo[2.2.1]hept-2-yl}-ethanone], the IC50 in experiment [1] was found to be 12 nM; in experiment [2], 293 nM.

Turning to `CN(Cc1ccccc1)Cc1c[nH]c2cc(Oc3nc4ccccc4s3)ccc12` [Example 5, [6-(Benzothiazol-2-yloxy)-1H-indol-3-ylmethyl]-benzyl-methyl-amine], the half-maximal inhibitory concentration (IC50) in experiment [1] is 54 nM; in experiment [2] it was 901 nM.

Regarding `c1cnc2nc(Oc3ccc4oc(CN5CCCCC5)cc4c3)sc2c1` [Example 86, 2-(2-Piperidin-1-ylmethyl-benzofuran-5-yloxy)-thiazolo[4,5-b]pyridine], the IC50 was found to be 68 nM in experiment [1] and 85 nM in experiment [2].

As to `CN(Cc1ccco1)Cc1coc2cc(Oc3nc4ncccc4s3)ccc12` [Example 176, Furan-2-ylmethyl-methyl-[6-(thiazolo[4,5-b]pyridin-2-yloxy)-benzofuran-3-ylmethyl]-amine], the IC50 in experiment [1] worked out at 60 nM; in experiment [2], 200 nM.

For `c1ccc2sc(Oc3ccc4c(CN5CCCC5)c[nH]c4c3)nc2c1` [Example 1, 2-(3-Pyrrolidin-1-ylmethyl-1H-indol-6-yloxy)-benzothiazole], the IC50 worked out at 12 nM in experiment [1] and 68 nM in experiment [2].

As to `O=c1[nH]ncn1C1CCN(Cc2coc3cc(Oc4nc5ncccc5s4)ccc23)CC1` [Example 351, 4-{1-[6-(Thiazolo[4,5-b]pyridin-2-yloxy)-benzofuran-3-ylmethyl]-piperidin-4-yl}-2,4-dihydro-[1,2,4]triazol-3-one], the IC50 in experiment [1] was determined as 2 nM; in experiment [2] it was 94 nM.

As to `c1cnc2nc(Oc3ccc4c(CN5CCC(N6CCCCC6)CC5)coc4c3)sc2c1` [Example 284, 1′-[6-(Thiazolo[4,5-b]pyridin-2-yloxy)-benzofuran-3-ylmethyl]-[1,4′]bipiperidinyl formate], the figures for the IC50 in experiment [1] and in experiment [2] were 24 nM and 160 nM, respectively.

As for `NC1CCN(Cc2c[nH]c3cc(Oc4nc5ccccc5s4)ccc23)CC1` [Example 50, 1-[6-(Benzothiazol-2-yloxy)-1H-indol-3-ylmethyl]-piperidin-4-ylamine 2HCl], the IC50 came out at 28 nM in experiment [1] and 739 nM in experiment [2].

Turning to `CC(=O)N1C[C@H]2CC[C@@H](C1)N2Cc1cc2ccc(Oc3nc4cnccc4s3)cc2o1` [Example 202, meso-1-{8-[6-(Thiazolo[4,5-c]pyridin-2-yloxy)-benzofuran-2-ylmethyl]-3,8-diaza-bicyclo[3.2.1]oct-3-yl}ethanone], the IC50 in experiment [1] was 1520 nM; in experiment [2], 2700 nM.

With `c1ccc(C2CCN(Cc3c[nH]c4cc(Oc5nc6ccccc6s5)ccc34)CC2)cc1` [Example 8, 2-[3-(4-Phenyl-piperidin-1-ylmethyl)-1H-indol-6-yloxy]-benzothiazole], the IC50 stood at 11 nM in experiment [1] and 1140 nM in experiment [2].

Regarding `c1ccc2sc(Oc3cnc4c(CN5CCCCC5)c[nH]c4c3)nc2c1` [Example 31, 2-(3-Piperidin-1-ylmethyl-1H-pyrrolo[3,2-b]pyridin-6-yloxy)-benzothiazole], the IC50 in experiment [1] amounted to 55 nM; in experiment [2], 188 nM.

`c1ccc2sc(Oc3ccc4c(CN5CCOCC5)c[nH]c4c3)nc2c1` [Example 3, 2-(3-Morpholin-4-ylmethyl-1H-indol-6-yloxy)-benzothiazole]: the IC50 in experiment [1] turned out to be 16 nM; in experiment [2], 303 nM.

Turning to `CC(=O)N1CCN(Cc2cc3ccc(Oc4nc5ncccc5s4)cc3o2)CC1` [Example 171, 1-{4-[6-(Thiazolo[4,5-b]pyridin-2-yloxy)-benzofuran-2-ylmethyl]-piperazin-1-yl}-ethanone], the IC50 in experiment [1] amounted to 59 nM; in experiment [2] it was 280 nM.

As for `NC(=O)N1C[C@@H]2C[C@H]1CN2` [Inter. 17, (1S,4S)-2,5-Diaza-bicyclo[2.2.1]heptane-2-carboxylic acid amide hydrochloride], the IC50 in experiment [1] is 37 nM; in experiment [2], 1000 nM.

Regarding `Cc1cc(CC(=O)NCc2coc3cc(Oc4nc5ncccc5s4)ccc23)on1` [Example 391, 2-(3-Methyl-isoxazol-5-yl)-N-[6-(thiazolo[4,5-b]pyridin-2-yloxy)-benzofuran-3-ylmethyl]-acetamide], the values for the IC50 in experiment [1] and in experiment [2] were 74 nM and 560 nM, respectively.

On to `FC1CCCN(Cc2coc3cc(Oc4nc5ncccc5s4)ccc23)C1` (centres unmarked) [Example 350, 2-[3-(3-Fluoro-piperidin-1-ylmethyl)-benzofuran-6-yloxy]-thiazolo[4,5-b]pyridine], for which the results for the IC50 in experiment [1] and in experiment [2] were 26 nM and 38 nM, respectively.

`c1ccc2sc(Oc3ccc4[nH]c(CN5CCCC5)cc4c3)nc2c1` [Example 66, 2-(2-Pyrrolidin-1-ylmethyl-1H-indol-5-yloxy)-benzothiazole]: the IC50 in experiment [1] is 30 nM; in experiment [2], 1130 nM.

As to `O=C(c1ccoc1)N1CC2CN(Cc3coc4cc(Oc5nc6ncccc6s5)ccc34)CC2C1` (centres unmarked) [Example 359, Furan-3-yl-{5-[6-(thiazolo[4,5-b]pyridin-2-yloxy)-benzofuran-3-ylmethyl]-hexahydro-pyrrolo[3,4-c]pyrrol-2-yl}-methanone], the IC50 in experiment [1] was found to be 8 nM; in experiment [2], 190 nM.

As for `c1ccc2c(c1)CN(Cc1c[nH]c3cc(Oc4nc5ccccc5s4)ccc13)C2` [Example 6, 2-[3-(1,3-Dihydro-isoindol-2-ylmethyl)-1H-indol-6-yloxy]-benzothiazole], the IC50 came out at 17 nM in experiment [1] and 968 nM in experiment [2].
